# Assay results taken from ChEMBL document CHEMBL4419173, “Small-molecule inhibitors targeting g-protein-coupled rho guanine nucleotide exchange factors” (2014).
# Activity calls are given as the source filed them. No cut-off for these calls is given here.
# Assays:
# MCF7 [1] = experiment: Inhibition of RhoGEF in human MCF7 cells derived mammospheres assessed as inhibition of RhoA-mediated phospho-MLC formation at 10 uM incubated for 24 hrs by densitometry; assay type: cell-based
# [2] = target: Rho guanine nucleotide exchange factor 12 (Homo sapiens, UniProt Q9NZN5); experiment: Inhibition of human LARG (765 to 1138 residues) RhoGEF binding to human full length RhoA (1 to 193 residues)
# Sequence of Rho guanine nucleotide exchange factor 12 (Homo sapiens, UniProt Q9NZN5) (Q9NZN5 whole entry, the tested form may be a part): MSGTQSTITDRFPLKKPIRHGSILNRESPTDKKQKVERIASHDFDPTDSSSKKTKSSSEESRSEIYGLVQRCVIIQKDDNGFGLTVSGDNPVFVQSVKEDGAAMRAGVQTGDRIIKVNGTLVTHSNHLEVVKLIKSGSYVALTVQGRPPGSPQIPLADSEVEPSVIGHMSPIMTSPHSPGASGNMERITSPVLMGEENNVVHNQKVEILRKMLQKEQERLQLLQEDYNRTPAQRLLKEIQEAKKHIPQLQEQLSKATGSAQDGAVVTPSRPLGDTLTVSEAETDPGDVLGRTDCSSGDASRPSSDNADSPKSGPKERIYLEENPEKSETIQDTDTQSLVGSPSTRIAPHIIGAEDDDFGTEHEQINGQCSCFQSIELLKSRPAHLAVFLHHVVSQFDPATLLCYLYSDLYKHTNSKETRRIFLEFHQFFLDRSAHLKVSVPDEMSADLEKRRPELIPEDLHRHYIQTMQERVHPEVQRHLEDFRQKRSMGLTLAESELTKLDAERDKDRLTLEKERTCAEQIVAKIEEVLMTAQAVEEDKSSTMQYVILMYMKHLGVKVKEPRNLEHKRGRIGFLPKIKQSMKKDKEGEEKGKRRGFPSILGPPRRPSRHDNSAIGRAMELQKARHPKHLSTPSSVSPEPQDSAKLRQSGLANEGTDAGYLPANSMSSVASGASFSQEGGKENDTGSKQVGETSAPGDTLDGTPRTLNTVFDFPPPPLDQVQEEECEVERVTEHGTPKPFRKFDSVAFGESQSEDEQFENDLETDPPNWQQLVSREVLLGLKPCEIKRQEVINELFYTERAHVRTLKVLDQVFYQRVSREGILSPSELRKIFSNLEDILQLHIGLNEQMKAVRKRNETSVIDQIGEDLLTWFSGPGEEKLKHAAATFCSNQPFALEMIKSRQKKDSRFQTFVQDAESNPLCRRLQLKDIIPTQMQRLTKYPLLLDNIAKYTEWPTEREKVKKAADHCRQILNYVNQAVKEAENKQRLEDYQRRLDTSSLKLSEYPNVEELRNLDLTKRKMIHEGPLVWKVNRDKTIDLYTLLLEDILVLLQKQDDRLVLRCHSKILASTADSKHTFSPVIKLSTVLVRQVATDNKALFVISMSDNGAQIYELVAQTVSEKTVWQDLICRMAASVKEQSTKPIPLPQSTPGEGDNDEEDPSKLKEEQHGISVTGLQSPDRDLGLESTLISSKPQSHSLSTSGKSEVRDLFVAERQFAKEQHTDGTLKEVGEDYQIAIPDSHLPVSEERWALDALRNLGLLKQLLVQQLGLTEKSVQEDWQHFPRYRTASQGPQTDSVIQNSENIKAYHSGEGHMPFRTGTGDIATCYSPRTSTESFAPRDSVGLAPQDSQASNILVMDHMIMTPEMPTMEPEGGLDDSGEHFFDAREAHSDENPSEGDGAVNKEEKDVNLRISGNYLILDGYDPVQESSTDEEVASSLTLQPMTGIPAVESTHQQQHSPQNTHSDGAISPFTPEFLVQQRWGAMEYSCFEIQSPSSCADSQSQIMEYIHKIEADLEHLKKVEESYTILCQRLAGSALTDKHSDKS
# Mus musculus [3] = organism: Mus musculus; experiment: Inhibition of RhoGEF in mouse NIH/3T3 cells assessed as inhibition of 10% calf serum-induced RhoA-GTP formation by measuring relative RhoA-GTP level at 10 uM incubated for 24 hrs by densitometry (reference value: 1); assay type: cell-based
# Mus musculus [4] = organism: Mus musculus; experiment: Inhibition of RhoGEF-mediated RhoA signaling in mouse NIH/3T3 cells assessed as reduction in 10% calf serum-induced stress fiber and focal complex formation 30 uM incubated for 24 hrs; assay type: cell-based
# [5] = target: Proto-oncogene DBL/Transforming protein RhoA (Homo sapiens) (UniProt P61586+P10911); experiment: Inhibition of GST-tagged human DBL RhoGEF DH-PH module expressed in mouse NIH/3T3 cells assessed as reduction in human full length RhoA (1 to 193 residues) interaction with DBL RhoGEF at 10 to 50 uM incubated for 1 hr by Western blot analysis based His-RhoA pull-down assay; assay type: cell-based
# MCF7 [6] = experiment: Growth inhibition of human MCF7 cells at 2.5 to 15 uM in presence of 2.5 to 15 uM Rhosin/G04; assay type: functional, cell-based
# [7] = target: T1, RhoGEF 1/Transforming protein RhoA (Homo sapiens) (UniProt P61586+Q92888); experiment: Inhibition of GFP-tagged human p115 RhoGEF DH-PH module expressed in mouse NIH/3T3 cells assessed as reduction in human full length RhoA (1 to 193 residues) interaction with p115 RhoGEF at 30 to 50 uM incubated for 1 hr by Western blot analysis based GST-RhoA pull-down assay; assay type: cell-based
# Mus musculus [8] = organism: Mus musculus; experiment: Inhibition of RhoGEF in mouse NIH/3T3 cells assessed as inhibition of 10% calf serum-induced Rac1-GTP formation by measuring Rac1-GTP level at 30 uM incubated for 24 hrs by densitometry relative to control (reference value: 2.86); assay type: cell-based
# Homo sapiens = organism: Homo sapiens; experiment: Inhibition of GST-tagged human TrioN (1284 to 1711 residues) RhoGEF-catalyzed guanine nucleotide-exchange reaction of human full length Rac1 (1 to 192 residues) by measuring inhibition of the GDP dissociation from Rac1 at 0.76 to 250000 nM by Alexa 647 fluorescence dye based GDP/GTP exchange assay
# MCF7 [9] = experiment: Inhibition of cell migration of human MCF7 cells at 10 to 50 uM; assay type: functional, cell-based
# MCF7 [10] = experiment: Inhibition of RhoGEF in human MCF7 cells derived mammospheres assessed as inhibition of 10% calf serum-induced RhoA-GTP formation by measuring relative RhoA-GTP level at 5 uM in presence of 5 uM Rhosin/G04 incubated for 24 hrs by densitometry (reference value: 1); assay type: cell-based
# [11] = test system: Rho-associated protein kinase 2 (Homo sapiens), O75116 [UNDEFINED MUTATION]; experiment: Inhibition of constitutively active ROCK2 mutant (unknown origin) expressed in mouse NIH/3T3 cells assessed as reduction in 10% calf serum-induced actin stress fiber formation at 30 uM by rhodamine-phalloidin staining based assay; assay type: cell-based
# Sequence of Rho-associated protein kinase 2 (Homo sapiens), O75116 [UNDEFINED MUTATION] (O75116 whole entry, looked up, change not shown): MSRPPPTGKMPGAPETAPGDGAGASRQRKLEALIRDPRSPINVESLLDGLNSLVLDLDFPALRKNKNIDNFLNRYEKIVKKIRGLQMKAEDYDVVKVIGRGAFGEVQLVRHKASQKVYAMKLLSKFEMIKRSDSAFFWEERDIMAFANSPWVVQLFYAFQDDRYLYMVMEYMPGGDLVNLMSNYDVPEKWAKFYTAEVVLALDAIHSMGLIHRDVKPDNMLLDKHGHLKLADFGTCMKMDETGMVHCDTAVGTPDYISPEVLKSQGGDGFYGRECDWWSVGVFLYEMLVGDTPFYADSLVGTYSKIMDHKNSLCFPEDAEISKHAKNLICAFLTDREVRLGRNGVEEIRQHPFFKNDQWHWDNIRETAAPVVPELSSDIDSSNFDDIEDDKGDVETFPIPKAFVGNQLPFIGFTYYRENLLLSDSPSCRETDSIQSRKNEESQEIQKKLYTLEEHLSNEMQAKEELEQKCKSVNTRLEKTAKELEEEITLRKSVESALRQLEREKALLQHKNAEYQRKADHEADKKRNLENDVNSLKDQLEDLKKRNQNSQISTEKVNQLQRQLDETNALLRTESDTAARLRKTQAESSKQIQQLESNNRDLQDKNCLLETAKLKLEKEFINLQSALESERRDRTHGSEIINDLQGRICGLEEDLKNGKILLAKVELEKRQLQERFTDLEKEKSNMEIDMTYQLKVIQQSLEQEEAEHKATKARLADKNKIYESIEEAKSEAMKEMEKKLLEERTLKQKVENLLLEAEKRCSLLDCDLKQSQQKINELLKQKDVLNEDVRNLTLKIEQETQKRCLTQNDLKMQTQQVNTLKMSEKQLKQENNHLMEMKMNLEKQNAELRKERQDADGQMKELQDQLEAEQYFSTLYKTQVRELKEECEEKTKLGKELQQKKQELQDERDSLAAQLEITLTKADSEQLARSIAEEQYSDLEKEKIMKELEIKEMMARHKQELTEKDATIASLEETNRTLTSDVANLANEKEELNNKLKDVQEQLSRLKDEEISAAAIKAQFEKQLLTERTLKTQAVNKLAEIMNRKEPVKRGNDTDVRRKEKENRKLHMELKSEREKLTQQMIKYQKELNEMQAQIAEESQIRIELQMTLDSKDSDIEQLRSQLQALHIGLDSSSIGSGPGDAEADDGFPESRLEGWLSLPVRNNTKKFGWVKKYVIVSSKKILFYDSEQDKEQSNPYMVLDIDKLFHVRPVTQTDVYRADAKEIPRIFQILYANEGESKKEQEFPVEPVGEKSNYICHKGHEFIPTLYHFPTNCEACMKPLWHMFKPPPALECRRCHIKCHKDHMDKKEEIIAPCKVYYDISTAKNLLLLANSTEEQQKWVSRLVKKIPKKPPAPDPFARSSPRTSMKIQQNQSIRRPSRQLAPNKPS
# Mus musculus [12] = organism: Mus musculus; experiment: Inhibition of RhoGEF in mouse NIH/3T3 cells assessed as inhibition of 10% calf serum-induced Cdc42-GTP formation by measuring relative Cdc42-GTP level at 50 uM in presence of 50 uM Rhosin/G04 incubated for 24 hrs by densitometry (reference value: 1); assay type: cell-based
# MCF7 [13] = experiment: Inhibition of cell migration of human MCF7 cells at 2.5 to 30 uM in presence of 2.5 to 30 uM Rhosin/G04; assay type: functional, cell-based
# Mus musculus [14] = organism: Mus musculus; experiment: Inhibition of RhoGEF in mouse NIH/3T3 cells assessed as inhibition of 10% calf serum-induced RhoA-GTP formation by measuring reduction in RhoA-GTP level at 2.5 uM in presence of 2.5 uM Rhosin/G04 incubated for 24 hrs by densitometry relative to control; assay type: cell-based
# [15] = target: Rho guanine nucleotide exchange factor 12 (Homo sapiens, UniProt Q9NZN5, N983A); experiment: Binding affinity to recombinant human LARG (765 to 1138 residues) N983A mutant by microscale thermophoresis analysis
# Mus musculus [16] = organism: Mus musculus; experiment: Inhibition of RhoGEF in mouse NIH/3T3 cells assessed as inhibition of 10% calf serum-induced Cdc42-GTP formation by measuring Cdc42-GTP level at 30 uM incubated for 24 hrs by densitometry relative to control (reference value: 3.25); assay type: cell-based
# Mus musculus [17] = organism: Mus musculus; experiment: Inhibition of RhoGEF in mouse NIH/3T3 cells assessed as inhibition of 10% calf serum-induced RhoA-GTP formation by measuring relative RhoA-GTP level at 2.5 uM in presence of 2.5 uM Rhosin/G04 incubated for 24 hrs by densitometry (reference value: 1); assay type: cell-based
# MCF7 [18] = experiment: Inhibition of cell invasion of human MCF7 cells at 10 to 50 uM by Matrigel-coated transwell based assay; assay type: functional
# Mus musculus [19] = organism: Mus musculus; experiment: Inhibition of RhoGEF-mediated Rac1 signaling in mouse NIH/3T3 cells assessed as reduction in PDGF-stimulated Rac1-mediated lamellipodia formation at 10 to 30 uM; assay type: cell-based
# [20] = target: Intersectin-1 (Homo sapiens) (UniProt Q15811); experiment: Binding affinity to GST-tagged human intersectin-1 RhoGEF at 1 to 100000 nM by microscale thermophoresis analysis
# Sequence of Intersectin-1 (Homo sapiens) (Q15811 whole entry): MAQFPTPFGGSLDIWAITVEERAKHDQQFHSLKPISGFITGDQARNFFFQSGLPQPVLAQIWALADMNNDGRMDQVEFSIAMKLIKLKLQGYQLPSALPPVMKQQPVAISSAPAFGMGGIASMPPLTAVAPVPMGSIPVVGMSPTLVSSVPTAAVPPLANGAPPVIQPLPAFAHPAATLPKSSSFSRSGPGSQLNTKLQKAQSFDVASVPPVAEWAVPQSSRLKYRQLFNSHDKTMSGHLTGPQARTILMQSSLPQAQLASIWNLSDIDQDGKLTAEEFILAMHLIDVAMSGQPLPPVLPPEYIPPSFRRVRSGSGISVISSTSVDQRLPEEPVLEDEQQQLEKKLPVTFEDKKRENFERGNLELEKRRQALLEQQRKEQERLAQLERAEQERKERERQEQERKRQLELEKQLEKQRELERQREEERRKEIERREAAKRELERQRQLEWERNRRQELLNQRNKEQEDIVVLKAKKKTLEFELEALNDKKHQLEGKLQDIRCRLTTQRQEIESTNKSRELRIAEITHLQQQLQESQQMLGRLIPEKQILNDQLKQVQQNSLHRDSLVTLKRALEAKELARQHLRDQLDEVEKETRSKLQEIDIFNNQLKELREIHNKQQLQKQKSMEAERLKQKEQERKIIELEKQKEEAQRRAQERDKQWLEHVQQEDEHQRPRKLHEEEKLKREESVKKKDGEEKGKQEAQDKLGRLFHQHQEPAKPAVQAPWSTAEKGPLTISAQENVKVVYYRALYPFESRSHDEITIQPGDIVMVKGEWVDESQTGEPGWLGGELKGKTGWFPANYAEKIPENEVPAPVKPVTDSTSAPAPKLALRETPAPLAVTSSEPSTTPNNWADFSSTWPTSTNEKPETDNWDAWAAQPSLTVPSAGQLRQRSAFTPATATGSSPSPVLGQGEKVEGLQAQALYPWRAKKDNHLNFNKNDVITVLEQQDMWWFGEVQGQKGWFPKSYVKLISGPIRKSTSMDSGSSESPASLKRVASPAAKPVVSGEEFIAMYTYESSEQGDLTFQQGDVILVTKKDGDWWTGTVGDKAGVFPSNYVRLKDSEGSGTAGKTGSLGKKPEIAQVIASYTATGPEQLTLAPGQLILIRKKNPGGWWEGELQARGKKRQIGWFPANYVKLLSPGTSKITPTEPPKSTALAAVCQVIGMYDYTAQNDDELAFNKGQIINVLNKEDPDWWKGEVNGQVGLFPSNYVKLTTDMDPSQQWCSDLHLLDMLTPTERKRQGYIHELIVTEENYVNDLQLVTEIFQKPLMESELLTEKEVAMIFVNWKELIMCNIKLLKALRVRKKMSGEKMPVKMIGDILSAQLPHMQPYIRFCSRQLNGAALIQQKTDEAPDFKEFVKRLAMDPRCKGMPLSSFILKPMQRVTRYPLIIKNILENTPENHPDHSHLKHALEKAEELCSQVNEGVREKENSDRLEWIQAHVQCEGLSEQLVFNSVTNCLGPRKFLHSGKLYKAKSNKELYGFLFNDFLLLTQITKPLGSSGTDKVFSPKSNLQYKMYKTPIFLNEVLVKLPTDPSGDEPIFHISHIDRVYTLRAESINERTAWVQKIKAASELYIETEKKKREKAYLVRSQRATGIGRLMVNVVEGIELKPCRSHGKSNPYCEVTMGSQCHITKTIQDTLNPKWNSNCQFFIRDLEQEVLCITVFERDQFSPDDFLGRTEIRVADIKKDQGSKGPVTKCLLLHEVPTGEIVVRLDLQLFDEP
# MCF7 [21] = experiment: Inhibition of RhoGEF in human MCF7 cells derived mammospheres assessed as inhibition of 10% calf serum-induced RhoA-GTP formation by measuring relative RhoA-GTP level at 5 uM incubated for 24 hrs by densitometry (reference value: 1); assay type: cell-based
# MCF7 [22] = experiment: Inhibition of RhoGEF in human MCF7 cells derived mammospheres assessed as inhibition of 10% calf serum-induced RhoA-GTP formation by measuring relative RhoA-GTP level at 10 uM incubated for 24 hrs by densitometry (reference value: 1); assay type: cell-based
# Mus musculus [23] = organism: Mus musculus; experiment: Inhibition of RhoGEF in mouse NIH/3T3 cells assessed as inhibition of 10% calf serum-induced RhoA-GTP formation incubated for 24 hrs by densitometry; assay type: cell-based
# Mus musculus [24] = organism: Mus musculus; experiment: Inhibition of RhoGEF in mouse NIH/3T3 cells assessed as inhibition of 10% calf serum-induced RhoA-GTP formation by measuring RhoA-GTP level at 10 uM incubated for 24 hrs by densitometry relative to control (reference value: 2.15); assay type: cell-based
# [25] = target: T1, RhoGEF 1/Transforming protein RhoA (Homo sapiens); experiment: Binding affinity to human LARG (765 to 1138 residues) DH-PH module expressed in mouse NIH/3T3 cells assessed as reduction in LARG binding to human full length RhoA (1 to 193 residues) by measuring relative LARG binding level at 15 uM in presence of 15 uM Rhosin/G04 pull-down assay (reference value: 1 No unit); assay type: cell-based
structure (smiles),measurement,setting,value
Cc1cccc(COc2cccc(/C=C3\C(=O)NN(c4ccccc4)C3=O)c2)c1,inhibition,MCF7 [1],50%
same,IC50,[2],5 µM
same,fold change (FC),Mus musculus [3],0.8
same,inhibition,Mus musculus [4],Active
same,inhibition,[5],inactive
same,growth inhibition (GI),MCF7 [6],Active
same,inhibition,[7],Active
same,fold change (FC),Mus musculus [8],2.36
same,inhibition,Homo sapiens,inactive
same,inhibition,MCF7 [9],Active
same,fold change (FC),MCF7 [10],0.11
same,inhibition,[11],inactive
same,fold change (FC),Mus musculus [12],1.27
same,inhibition,MCF7 [13],Active
same,inhibition,Mus musculus [14],50%
same,Kd,[15],> 500 µM
same,fold change (FC),Mus musculus [16],2.11
same,fold change (FC),Mus musculus [17],1.26
same,inhibition,MCF7 [18],Active
same,inhibition,Mus musculus [19],inactive
same,Activity,[20],inactive
same,fold change (FC),MCF7 [21],0.77
same,fold change (FC),MCF7 [22],0.4
same,inhibition,Mus musculus [23],Dose-dependent effect
same,fold change (FC),Mus musculus [24],1.09
same,fold change (FC),[25],0.03
